Assay results reported in patent US20050020687A1, “Methods of treating inflammatory and viral disorders by administering cyclopentenone compounds” (priority 1996, published 2005).
“Also recorded” adds a separate entry of the source. Like-named read-outs stand apart in the source and are kept apart here.

How the values were obtained:
NF-κB = assay: TPA-induced NF-κB activation by EMSA in Jurkat cells; details: for IC90: read-out: NF-κB inhibition IC90, TPA 25 ng/ml; for TPA-induced NF-κB activation at 500 μM: 500 μM for 1 hour then TPA 25 ng/ml; for concentrations found to inhibit NF-κB activation: FIG. 10
Description: (§1) Three hours after treatment, whole cell extracts were prepared and analyzed by EMSA (Electrophoretic Mobility Shift Assay) as described in Amici et al., 1995, supra. After a 20 minute incubation at room temperature, HSF-HSE or NF-κB-DNA-complexes were analyzed by nondenaturing 4% polyacrylamide gel electrophoresis and autoradiography. The amount of shifted HSE probe and NF-κB probe, an indicator of HSF DNA-binding activity and NF-κB activity, respectively, were quantitated by Molecular Dynamics Phospholmager (MDP) analysis.
(§2) At different times or three hours after treatment, whole cell extracts were prepared and analyzed by EMSA (Electrophoretic Mobility Shift Assay) as described in Amici et al., 1995, supra. Briefly, extracts (10 μg/sample) were mixed with 0.1 ng of a ^32P-NF-κB element or ^32P—HSE oligonucleotide and 0.5 μg of poly(dI-dC) (Pharmacia Biotech Inc.) in 25 μl of binding buffer (10 nM Tris-Cl, pH 7.8, 50 mM NaCl, 1 mM EDTA, 0.5 mM dithiothreitol, 5% glycerol). After a 20 minute incubation at room temperature, HSF-HSE or NF-κB-DNA-complexes were analyzed by nondenaturing 4% polyacrylamide gel electrophoresis and autoradiography. The amount of shifted HSE probe and NF-κB probe, an indicator of HSF DNA-binding activity and NF-κB activity, respectively, were quantitated by Molecular Dynamics Phospholmager (MDP) analysis.
(§3) Jurkat cells were incubated with the compounds listed in Table 1 (infra) or reference diluent at different concentrations for 1 hour and then were stimulated with TPA (25 ng/ml). After 1 hour at 37° C. the whole-cell extracts were prepared and subjected to EMSA to determine NF-κB and HSF activation. The levels of binding-DNA activity of NF-κB were quantified with Molecular Dynamics Phosphorlmager analysis.

[1] = tested on: vesicular stomatitis virus (VSV), Indiana serotype (Orsay); format: cell-based; details: MA104 cells
VSV proteins = format: cell-based, vesicular stomatitis virus; details: VSV-infected MA104 cells, [35S]-methionine, SDS-PAGE
[2] = tested on: heat shock transcription factor (HSF); assay: HSF activation by EMSA in K562 cells; details: 500 μM
Description: K562 human erythroleukemia cells, monolayers of monkey kidney cells (MA104 cells), and Jurkat cells were grown in RPMI 1640 medium supplemented with 10% fetal calf serum and antibiotics at 37° C. in a 5% CO2 humidified atmosphere (Amici et al., 1995, Cancer Research 55: 14452-4457).
At different times following 2-cyclopenten-1-one treatment or 3 hours following heat shock, whole cell extracts were prepared and analyzed by EMSA (Electrophoretic Mobility Shift Assay) as described in Amici et al., 1995, supra.

[3] = tested on: heat shock transcription factor (HSF); assay: HSF activation by EMSA in Jurkat cells; details: for HSF activation at 500 μM: 500 μM for 1 hour then TPA; for concentrations found to activate HSF: TPA 25 ng/ml, FIG. 10
Description: as §1, §2, §3

HSP70 gene transcription = assay: Transcription run-on assay in isolated K562 nuclei
Description: In vitro run-on transcription reactions were performed in isolated K562 nuclei as described in Banerji et al, 1984, Mol. Cell. […] The vector plasmid (pBluescript) was used as a non-specific hybridization control. Following hybridization, the filters were visualized by autoradiography and the radioactivity was quantitated by MDP analysis. The values are expressed as arbitrary units obtained by comparing transcription rates to control levels.

HSP70 [4] = assay: HSP70 and total protein synthesis in K562 cells ([35S]-methionine); details: 500 μM
Description: K562 cells treated with 500 μM 2 cyclopenten-1-one for different times were pulse-labeled with L-[^35S]-methionine (10 μCi/10^6 cells) for 1 hour. Cells were washed with phosphate buffered saline (PBS) and lysed with 400 μl of lysis buffer (20 nM Tris-Ci, pH 7.4, 0.1 M NaCl, 5 mM MgCl2, 1% Nonidet P-40, 0.5% SDS) containing protease inhibitors. After cell lysis, the radioactivity incorporated into trichloroacetic acid-insoluble material was determined, and an aliquot of samples containing the same amount of radioactivity were analyzed by 10% SDS-PAGE and autoradiography. HSP70 synthesis was determined by densitometric analysis of the autoradiograms. Total protein synthesis was determined as [^35S]-methionine incorporation into TCA-insoluble material (Amici et al., 1993, Exp. Cell. Res. 207. 230-234).

[5] = tested on: HSP90 and HSP70 gene transcription; assay: Transcription run-on assay in isolated Jurkat nuclei; format: cell-based, human
[6] = tested on: Influenza A virus A/PR8/34 (H1N1) (PR8 virus); assay: PR8 influenza virus replication in MDCK cells (HAU and CPE50%); format: cell-based
HSP70 [7] = assay: Cellular and heat shock protein synthesis in MDCK cells; format: cell-based, canine
[8] = tested on: PR8 influenza virus proteins; format: cell-based, Influenza A virus
PR8 influenza virus = assay: Survival and body weight of PR8-infected Balb/c mice; format: in vivo
PR8 virus = assay: Virus titer in the lungs of PR8-infected mice; format: in vivo, Balb/c mice; details: 10 μg/mouse/day i.p., four days after infection with 1 HAU PR8 virus/mouse
[9] = 10 μg/day/mouse i.p., for 4 days

`CC(=O)NC(Cc1ccccc1)C(=O)Oc1ccc2ccccc2c1` (racemic) [APNE, N-acethyl-DL-phenylalanine-β-napthylester] showed an IC90 (NF-κB) of 300 µM.
In the case of `O=C1C=CCC1` [2-cyclopenten-1-one], the “inhibition of production of VSV infectious particles with respect to control” value (“inhibition of production … to control” below) ([1]; 24 h p.i., lower end of 100-500 μM) is reported as 10 times, the “inhibition of production … to control” value ([1]; 24 h p.i., upper end of 100-500 μM) is reported as “more than 1000 times” and the “effect on VSV protein synthesis” value (VSV proteins) is reported as “selective block of the viral protein synthesis”. The “less activated HSF at 24 hours than at 9 hours after treatment” value [2] was “Approximately 50%”, the “time after treatment at which activation of HSF was detected” value [2] was 1.5 h and the “time after treatment of maximum levels of HSF activation” value [2] was 9 h. For the same compound, the “HSF activation at 500 μM” value ([3]; EMSA) was “detected”, the “HSF activation at 125 μM” value ([3]; same samples as NF-κB EMSA) was “detectable” and the “HSP70 mRNA transcription by 24 hours after treatment” value (HSP70 gene transcription) was “decreased”. For the same compound, the “time after treatment at which HSP70 mRNA transcription was detected” value (HSP70 gene transcription) was 1.5 h, the “time after treatment at which HSP70 transcription rates were maximal” value (HSP70 gene transcription) was 6 to 9 h and the “transcription of other stress proteins (HSC70, GRP78/BiP, heme-oxygenase)” value (HSP70 gene transcription) was “not affected”. The “TPA-induced NF-κB activation at 500 μM” value (NF-κB) was “not detectable; also recorded: inhibits TPA-induced NF-κB activation”, the “lowest concentration inhibiting NF-κB activation by TPA” value (NF-κB; TPA 25 ng/ml) was 125 µM and the “HSP70 protein synthesis versus cellular protein synthesis” value (HSP70 [4]) was “selectively stimulate HSP70 protein synthesis”.
For `O=c1oc(Cl)c(Cl)c2ccccc12` [DCIC, 3,4-dichloro-iso-coumarine], the “inhibition of production … to control” value ([1]; lower end of 5-45 μM) was 50%, the “inhibition of production … to control” value ([1]; upper end of 5-45 μM) was “more than 98%” and the “effect on VSV protein synthesis” value (VSV proteins) was “selective block of the viral protein synthesis”. For the same compound, the “HSP90 and HSP70 mRNA transcription by 24 hours after treatment” value [5] was “decreased”, the “selectivity of stress protein induction (HSP90, Grp78, HSC70, HSP70)” value [5] was “selectively induces the expression of HSP90 and HSP70” and the “time after treatment at which HSP90 and HSP70 mRNA transcription were detected” value [5] was 1 h. The “time after treatment at which HSP90 and HSP70 transcription rates were maximal” value [5] was “about 3 hours”, the “duration of HSF activation following initiation of treatment” value ([3]; 5 μM, EMSA) was 12 h and the “time after treatment at which activation of HSF was detected” value ([3]; 5 μM, EMSA) was 1 h. The “time after treatment of maximum levels of HSF activation” value ([3]; 5 μM, EMSA) was 3 h, the “concentrations found to activate HSF” value ([3]; EMSA) was 5 to 10 µM and the “concentrations found to inhibit NF-κB activation” value (NF-κB; TPA 25 ng/ml) was 5 to 10 µM. It also gave an IC90 (NF-κB) of 5.5 µM.
With `CCCCC[C@H](O)/C=C/[C@H]1C=CC(=O)[C@@H]1CCCCCCC(=O)O` [PGA1, Prostaglandin A1] the “effect on PR8 virus replication, comparison of prostaglandins” value [6] was “only modestly and transiently inhibited” and the “decrease of PR8 virus yield up to 48 hours p.i.” value ([6]; MDCK cells, 10 μg/ml, data not shown) was “more than 90 % of control”.
In the case of `O=C1CCCC1` [cyclopentanone, reference compound], the “HSF activation at 500 μM” value ([3]; EMSA) is reported as “not detected” and the “TPA-induced NF-κB activation at 500 μM” value (NF-κB) is reported as “do not inhibit NF-κB activation”.
In the case of `C1=CCCC1` [cyclopentene, reference compound], the “HSF activation at 500 μM” value ([3]; EMSA) is reported as “not detected” and the “TPA-induced NF-κB activation at 500 μM” value (NF-κB) is reported as “do not inhibit NF-κB activation”.
With `CCCCCC(O)C/C=C1/C(=O)C=CC1C/C=C\CCCC(=O)O` (stereo not drawn) [Δ^12-PGJ2, 9-deoxy-Δ^9,Δ^12-13,14-dihydro-PGD2] the “PR8 virus yield at concentrations higher than 6 μg/ml” value [6] was “not detectable”, the “PR8 virus yield in HAU” value [6] was 0 HAU and the “effect on PR8 virus replication, comparison of prostaglandins” value [6] was “most effective cyclopentenone prostaglandin”. For the same compound, the infectious virus titer [6] was 3.2+0.6×10^1 CPE5O % units/ml, the “inhibition of PR8 virus production” value [6] was “greater than 95 % of control” and the “reduction of infectious virus titers” value [6] was “more than 99 % of control”. For the same compound, the “period for which antiviral activity is sustained” value ([6]; MDCK cells, 6 μg/ml) was “at least 72 hours p.i”, the “inhibition of PR8 virus replication up to 72 h p.i.” value ([6]; MDCK cells, single treatment with 6 μg/ml) was “more than 95%” and the “time after treatment at which HSP70 synthesis was detectable” value (HSP70 [7]) was 3 h. For the same compound, the “time for which HSP70 synthesis continued to be detectable” value (HSP70 [7]) was “at least 12 hours”, the “synthesis of HSP90” value (HSP70 [7]; MDCK cells, 6 μg/ml) was “enhanced” and the “synthesis of HSC70 and HSP70” value (HSP70 [7]; MDCK cells, 6 μg/ml, SDS-PAGE and immunoblot) was “markedly induced”. For the same compound, the “protein synthesis in uninfected cells” value (HSP70 [7]; uninfected MDCK cells, 6 μg/ml, 24 hours) was “modest reduction”, the PR8 protein synthesis [8] was “dramatic reduction” and the “viral proteins by immunoblot analysis at 24 hours p.i.” value [8] was “not detectable”. The mouse survival (PR8 influenza virus; 1 μg/day/mouse i.p. for 7 days, FIG. 15A) was “no effect on mouse survival”, the “survival of the animals” value (PR8 influenza virus; 5 μg/day/mouse i.p. daily for 7 days, FIG. 15B) was 60% and the “mice survival on day 25 p.i.” value (PR8 influenza virus; 5 μg/day/mouse i.p. for 7 days, FIG. 15A) was 50%. For the same compound, the “survival of the animals” value (PR8 influenza virus; 5 μg/day/mouse i.p. on days 0, 2 and 4, FIG. 15B) was “approximately 30%”, the “body weight at 7 days p.i.” value (PR8 influenza virus; PR8-infected mice, 7-day treatment, 5 μg/day/mouse) was 18.25 ± 0.68 g and the “virus titer in the lungs” value (PR8 virus) was 0.07±0.03×10^4 CPE50% units/gr of lung tissue. The “uptake of precursors and DNA and RNA synthesis” value (MDCK cells) was “did not inhibit either the uptake of precursors or DNA and RNA synthesis”, the “virus-induced inhibition of cellular RNA synthesis” value (MDCK cells) was “prevented” and the signs of toxicity [9] was “did not show any sign of toxicity”. The “loss of body weight in infected animals” value ([9]; data not shown) was “reduced”.
With “Nα-tosyl-lysine-chloromethylketone [TLCK]” the “concentrations found to activate HSF” value ([3]; EMSA) was 30 to 75 µM, the “concentrations found to inhibit NF-κB activation” value (NF-κB; TPA 25 ng/ml) was 30 to 75 µM and the IC90 (NF-κB) was 135 µM.
In the case of “tosyl-L-phenylalanine-chloromethylketone [TPCK]”, the “concentrations found to activate HSF” value ([3]; EMSA) is reported as 12.5 to 25 µM, the “concentrations found to inhibit NF-κB activation” value (NF-κB; TPA 25 ng/ml) is reported as 12.5 to 25 µM and the IC90 (NF-κB) is reported as 12 µM.
